Test [1] concerns the target T1, eIF-2-alpha kinase GCN2 (Homo sapiens, UniProt Q9P2K8). Description: GCN2 Enzyme Inhibition (ATP 10 uM). The method, then:
(§1) The inhibitory activity of the Example compounds towards GCN2 enzyme was measured according to the description below, using a LanthaScreen TR-FRET (Time Resolved Fluorescence Resonance Energy Transfer) Kinase Activity assay distributed by ThermoFisher Scientific. The full-length human GCN2 enzyme (UniProt accession number Q9P2K8) was used for all experiments (Carna Bioscience). The TR-FRET pair was composed of GFP-eIF2α and LanthaScreen Terbium-labeled anti-peIF2α (pSer52) Antibody. […] Full inhibition (3000 nM commercial reference inhibitor) and DMSO vehicle control wells were also included on the same plate. All volumes were normalized to the final DMSO concentration of 2% of the reaction volume. Next, 5 μL of H2O was added to each well of the plate.

Test [2] addresses T1, eIF-2-alpha kinase GCN2. As to the kind of experiment: GCN2 Enzyme Inhibition (ATP 300 uM). The method, then:
as §1

Our source for the IC50 and Ki values is BindingDB's records for patent US20230271939 (Ip2Ipo Innovations, 2023).

T1 sequence (Q9P2K8 whole entry): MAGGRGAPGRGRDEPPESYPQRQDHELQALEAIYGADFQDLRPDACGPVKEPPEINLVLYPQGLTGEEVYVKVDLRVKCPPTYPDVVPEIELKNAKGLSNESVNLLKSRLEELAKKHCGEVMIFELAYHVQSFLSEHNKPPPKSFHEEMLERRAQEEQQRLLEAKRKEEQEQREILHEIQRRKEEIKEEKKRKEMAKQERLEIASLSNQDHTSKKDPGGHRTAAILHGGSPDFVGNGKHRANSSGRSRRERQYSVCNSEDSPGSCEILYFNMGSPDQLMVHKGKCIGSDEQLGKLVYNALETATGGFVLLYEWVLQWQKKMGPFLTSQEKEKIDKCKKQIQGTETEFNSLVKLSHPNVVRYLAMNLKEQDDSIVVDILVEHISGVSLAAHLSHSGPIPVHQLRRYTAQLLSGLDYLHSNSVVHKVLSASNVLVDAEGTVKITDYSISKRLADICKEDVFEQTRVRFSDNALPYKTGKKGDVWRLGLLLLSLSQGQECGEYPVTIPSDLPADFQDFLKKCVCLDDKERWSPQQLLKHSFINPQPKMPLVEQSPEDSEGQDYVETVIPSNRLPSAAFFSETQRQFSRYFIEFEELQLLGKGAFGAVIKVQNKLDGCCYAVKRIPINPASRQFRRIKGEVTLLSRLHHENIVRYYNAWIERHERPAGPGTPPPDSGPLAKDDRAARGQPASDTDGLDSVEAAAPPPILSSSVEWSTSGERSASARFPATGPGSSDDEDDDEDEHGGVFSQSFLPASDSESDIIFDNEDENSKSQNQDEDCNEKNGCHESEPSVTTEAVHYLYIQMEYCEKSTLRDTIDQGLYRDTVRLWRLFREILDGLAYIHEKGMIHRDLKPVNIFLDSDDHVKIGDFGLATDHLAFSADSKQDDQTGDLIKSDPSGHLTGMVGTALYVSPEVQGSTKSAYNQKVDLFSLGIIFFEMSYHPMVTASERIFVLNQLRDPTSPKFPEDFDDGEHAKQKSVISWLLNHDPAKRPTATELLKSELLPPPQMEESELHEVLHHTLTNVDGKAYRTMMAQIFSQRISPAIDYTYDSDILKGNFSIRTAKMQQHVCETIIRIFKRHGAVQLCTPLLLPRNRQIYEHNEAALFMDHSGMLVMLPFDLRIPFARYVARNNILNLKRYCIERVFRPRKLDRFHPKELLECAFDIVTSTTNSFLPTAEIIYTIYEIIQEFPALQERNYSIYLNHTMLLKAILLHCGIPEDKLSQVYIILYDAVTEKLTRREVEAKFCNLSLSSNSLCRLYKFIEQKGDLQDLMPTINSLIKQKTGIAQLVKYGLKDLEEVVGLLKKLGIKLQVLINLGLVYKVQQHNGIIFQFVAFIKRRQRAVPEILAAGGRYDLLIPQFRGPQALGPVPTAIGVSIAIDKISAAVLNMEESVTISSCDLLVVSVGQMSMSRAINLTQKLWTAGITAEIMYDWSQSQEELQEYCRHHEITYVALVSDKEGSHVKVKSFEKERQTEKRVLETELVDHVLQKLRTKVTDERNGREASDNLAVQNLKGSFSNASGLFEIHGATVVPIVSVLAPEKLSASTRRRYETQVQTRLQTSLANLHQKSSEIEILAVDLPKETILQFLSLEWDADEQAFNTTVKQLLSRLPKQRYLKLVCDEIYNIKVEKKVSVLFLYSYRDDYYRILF

A word on the IC50: it is the midpoint of a concentration-inhibition curve. By Ki is commonly meant the equilibrium dissociation constant of an inhibitor or competing ligand from its target. In the case of `COc1ncc(Cl)cc1S(=O)(=O)Nc1ncc(F)c(C#Cc2cnc(N)nc2)c1F` [US20230271939, Example 10], on eIF-2-alpha kinase GCN2 [1], the IC50 stood at 19.1 nM and the Ki came to 6.1 nM. Besides, on eIF-2-alpha kinase GCN2 [2], the IC50 was found to be 57.3 nM and the affinity, expressed as Ki, was 0.9 nM.
